Laboratory results: article PMC6746776, “TA*p63 and GTAp63 achieve tighter transcriptional regulation in quality control by converting an inhibitory element into an additional transactivation domain” (Cell Death & Disease, 2019)
“Also recorded” adds a separate entry of the source.

Tests used:
Sum159 cells [1] = assay: Cell survival assay of Sum159 cells (crystal violet); assay type: cell-based, human; conditions: 1.5 µM Dox for 24 h, cultured for additional 24 h (24–30 h in method), vs DMSO
Method: (§1) Immunoprecipitation was performed with two different p63 specific antibodies, AHP1815 (BioRad) and ab124267 (Abcam). For detection on WB, the p63α XP (D2K8X, cell signaling) antibody was used. b Specific TA*-peptides were found in two independent IP-MS analyses of immunoprecipitated p63 from Sum159 cells. Immunoprecipitation was performed with the p63 antibody ab124267 (Abcam). Two different types of mass spectrometers relying on different fragmentation and detection approaches were used for the experiments (IT: ion trap, CID: collision induced dissociation, FT: Fourier transform, HCD: higher-energy collisional dissociation). c BN-PAGE (3–12%) of Sum159 lysate followed by western blotting for TA*p63α. […] Cells were treated with 1.5 µM Dox or DMSO for 24 h (six-well plate) and cultured for additional 24–30 h. Sum159 cells were fixed with glutaraldehyde (6%) and stained with crystal violet (0.5%)
Sum159 cells were seeded in a six-well plate. Two days after seeding, cells were treated either with 1.5 µM Dox or DMSO for 24 h. The medium was changed and cells were cultured for additional 24–30 h. Afterwards, cells were washed three times with PBS and the fixation and staining solution (0.5% crystal violet, 6% glutaraldehyde) was incubated 1–2 h at RT. The solution was aspirated and the fixed cells were washed about five times with H2O and dried for 1–2 days at RT.

GTAp63α = assay: BN-PAGE oligomeric state of GTAp63α upon Dox treatment
Method: (§4) As a control, we used the S582/S583A mutants, which remove the Chk2 priming site preventing tetramerization[13].
(§5) Three hundred nanogram expression vector carrying the p63α gene were transiently transfected in U2OS cells (12-well plate). The next day, cells were treated with 10 µM Dox for 6 h. Migration of the different oligomeric states is indicated by T (tetramer), D (dimer), and M (monomer). […] Western blot analysis was carried out using an anti-myc antibody (4A6, Merck). Cells were pre-incubated with increasing Chk2 (BML-277, Merck) or CK1 inhibitor (PF670462, Sigma–Aldrich) concentrations (5, 25, 50 µM) for 1 h. Afterwards, 10 µM Dox was added and cells were harvested 6 h later. Migration of the different oligomeric states is indicated by T (tetramer), D (dimer), and M (monomer). Vinculin was used as loading control. Protein levels loaded on BN-PAGE were adjusted to equal p63 amounts by prior western blot analysis. SDS-PAGE to detect phosphoshifts were not input adjusted
(§6) H1299 cells were transfected using the Qiagen Effectene kit according to the manufacturer’s manual in a 12-well plate or H1299 cells stably expressing p63 isoforms were used. Cells were harvested and lysed in NP lysis buffer (20 mM Tris, 150 mM NaCl, 2 mM MgCl2, 20 mM CHAPS, 1 mM DTT, complete protease inhibitor cocktail (Roche), PhosSTOP (Roche) pH 7.4 or pH 8.0). Benzonase (Merck) was added and samples were lysed on ice for 1 h. BN-PAGE (3–12%, Thermo Fisher Scientific) was performed and blotted as previously described[17],[35]. Protein levels loaded on BN-PAGE were adjusted to equal p63 amounts by prior western blot analysis. SDS-PAGE to detect phosphoshifts were not input adjusted.
(§7) 300 ng expression vector carrying the p63 gene were transiently transfected in H1299 cells (12-well plate). The next day, cells were treated with 10 µM Dox for 6 h. Migration of the different oligomeric states is indicated by T (tetramer), D (dimer) and M (monomer). […] Stably p63 expressing H1299 were treated with 10 µM Dox for up to 10 h. Protein levels loaded on BN-PAGE were adjusted to equal p63 amounts by prior western blot analysis. SDS-PAGE to detect phosphoshifts were not input adjusted.

TAp63α = assay: BN-PAGE oligomeric state of TAp63α upon Dox treatment
Method: as §4, §5, §6
300 ng expression vector carrying the p63 gene were transiently transfected in H1299 cells (12-well plate). The next day, cells were treated with 10 µM Dox for 6 h. Migration of the different oligomeric states is indicated by T (tetramer), D (dimer) and M (monomer). […] Stably p63 expressing H1299 were treated with 10 µM Dox for up to 10 h. […]

Sum159 cells [2] = assay: Western blot, apoptosis markers cleaved PARP and cleaved Caspase3 in Sum159 cells; assay type: cell-based, human; conditions: 10 µM Dox, immunoblotting
Method: (§2) 4–15 or 7.5% SDS–PAGE Mini-PROTEAN TGX gels (BioRad) were blotted using the semidry Trans-Blot Turbo Transfer system (BioRad).The following antibodies were prepared in 5% milk in TBS-T and incubated overnight at 4 °C: anti-Myc (1:1000, clone 4A6, Millipore), anti-p63 (1:2500, ab124762, Abcam), anti-p63α XP (1:1000, D2K8X, Cell Signaling), anti-GAPDH (1:20,000, clone 6C5, Merck), anti-p53 (1:500, DO-1, Santa Cruz), anti-PARP (1:1000, 9542, Cell Signaling), anti-cleaved caspase3 (1:1000, 5A1E,Cell Signaling), and anti-vinculin (1:1000, clone 7F9, Santa Cruz). Secondary antibodies, used for detection, were also prepared in 5% milk in TBS-T and incubated for 1 h at RT (goat anti-mouse HRP, 1:5000, A9917, Sigma–Aldrich; goat anti-rabbit HRP, 1:2000, Jackson Immuno Research Europe Ltd., 111–035–144). Quantification of western blot signals was performed by using ImageJ.
(§3) Supplementary Figure S8 Dox treatment induces apoptosis in the breast cancer cell line Sum159. SDS-PAGEs followed by immunoblotting of Dox treated (10 µM) Sum159 cells. (a) Western blot was analyzed for the apoptosis markers PARP (#9542, Cell Signaling) and caspase 3 (5A1E, Cell Signaling). PARP and caspase3 cleavage were detectable starting at 4 h following treatment. (b) Mutant p53 (DO-1, Santa Cruz) and TA*p63α (D2K8X, Cell Signaling) levels were also investigated. […] GAPDH was used as loading control.

[3] = test system: mutant p53 in Sum159 cells; assay: Western blot, mutant p53 level in Sum159 cells; assay type: cell-based, human; conditions: 10 µM Dox, mutant p53, immunoblotting (DO-1)
Method: as §2, §3

TA*p63α = assay: BN-PAGE oligomeric state of TA*p63α upon Dox treatment
Method: as §4, §5, §6, §7

TA*p63α in Sum159 cells [4] = assay: Western blot, TA*p63α level in Sum159 cells; assay type: cell-based, human; conditions: 10 µM Dox, immunoblotting (D2K8X)
Method: as §2, §3

TA*p63α in Sum159 cells [5] = assay: BN-PAGE of Sum159 lysate, oligomeric state of endogenous TA*p63α; assay type: cell-based, human; conditions: 10 µM Dox, different periods of time, BN-PAGE (3–12%)
Method: as §1
To test whether TA*p63α can be activated in Sum159 cells by chemotherapeutic agents and induce apoptosis we treated cells with 10 µM Dox. […] Furthermore, the apoptosis marker cleaved PARP and cleaved Caspase3 are detectable starting 4 h following treatment (Supplementary Fig. S8). We also investigated cell survival.

[6] = H1299 stably expressing, 10 µM Dox for up to 10 h, BN-PAGE (Supplementary Fig. S4c)
[7] = transfected U2OS and H1299 cells, 10 µM Dox, 6 h, BN-PAGE

COc1cccc2c1C(=O)c1c(O)c3c(c(O)c1C2=O)C[C@@](O)(C(=O)CO)C[C@@H]3O[C@H]1C[C@H](N)[C@H](O)[C@H](C)O1 [Dox, doxorubicin]
cell survival (cell density) (Sum159 cells [1]): clear decrease in cell density | tetramer/dimer ratio following Dox, GTAp63α (GTAp63α; [6]): do not achieve predominant tetramerization like TAp63α; also recorded: significant population of the dimeric state; also recorded: do not reach the high tetramer/dimer ratio seen with TAp63α | activation to tetrameric state, GTAp63α (GTAp63α; [7]): activates all three isoforms to adopt tetrameric states | tetramer/dimer ratio following Dox, TAp63α (TAp63α; [6]): almost completely converted into tetramers | time after which TAp63α becomes partly tetrameric (TAp63α; tetramerization kinetics, H1299 stably expressing, 10 µM Dox for up to 10 h): 1 h | activation to tetrameric state, TAp63α (TAp63α; [7]): activates all three isoforms to adopt tetrameric states | time from which cleaved Caspase3 is detectable (Sum159 cells [2]): 4 h | time from which cleaved PARP is detectable (Sum159 cells [2]): 4 h | p53 level during treatment [3]: A decrease in p63 and p53 level is detectable | tetramer/dimer ratio following Dox, TA*p63α (TA*p63α; [6]): do not achieve predominant tetramerization like TAp63α; also recorded: significant population of the dimeric state; also recorded: do not reach the high tetramer/dimer ratio seen with TAp63α | activation to tetrameric state, TA*p63α (TA*p63α; [7]): activates all three isoforms to adopt tetrameric states | p63 level during treatment (TA*p63α in Sum159 cells [4]): A decrease in p63 and p53 level is detectable | shift of oligomeric state of TA*p63α in Sum159 cells (TA*p63α in Sum159 cells [5]): activated upon Dox treatment; also recorded: shifted from the inactive, dimeric to the active, tetrameric form | shift of oligomeric state of TA*p63α in Sum159 cells (TA*p63α in Sum159 cells [5]; listed as doxorubicin): TA*p63α gets activated
